Results as given in patent US20230372525A1, “TRANSGLUTAMINASE CONJUGATION METHOD WITH AMINO ACID-BASED LINKERS” (ARARIS BIOTECH AG, priority 2020, published 2023).
[ ]: non-standard residue; d: D form. The star is where a group is joined. N3 = [N-]=[N+]=N*; βAla = NCCC(=O)O

How the values were obtained:
various tumor cell lines = conditions: cited from earlier work
[1] = system: native, glycosylated antibody trastuzumab (anti Her2 IgG); test: MTG-mediated conjugation of peptide linkers to native glycosylated trastuzumab, conjugation efficiency by LC-MS under reducing conditions; format: biochemical; conditions: for Conjugation efficiency (%) to antibody: trastuzumab 5 mg/mL, 20 molar equivalents linker, 50 mM Tris pH 7.6; for Conjugation efficiency (%) to antibody / Conjugation efficiency (%) Trastuzumab with conditions 3: MTG 3 U/mg, 24 hours at 37° C.; for Conjugation efficiency (%) antibody with conditions 2: conditions 2: trastuzumab 1 mg/mL, MTG 6 U/mg, 80 molar equivalents linker, 20 hours at 37° C.; for Conjugation efficiency (%) Trastuzumab with conditions 3: conditions 3: 5 mg/mL antibody, 5 molar equivalents linker
Description: (§1) Linkers are used as obtained and dissolved at a suitable stock concentration (e.g. 25 mM) following the manufacturers instruction, aliquots are prepared and stored at −20° C. Two antibodies of IgG-subclass (antibody 1: anti Her2 IgG1, antibody 2: anti CD38 IgG1) are modified as follows: 5 mg/mL of non-deglycosylated antibody (˜33.33 μM) is mixed with 20 molar equivalents of amino acid-based linker (i.e. ˜667 μM), 3 U/mg of antibody and a suitable buffer. The reaction mixture is incubated for 20 h at 37° C. and then subjected for LC-MS analysis under reducing conditions. Other reaction conditions have been used as indicated in the corresponding example.
(§2) For conjugation of the peptide linkers (see FIG. 2 for structures), 5 mg/mL of native, glycosylated monoclonal antibody in 50 mM Tris pH 7.6, microbial transglutaminase (MTG, Zedira) at a concentration of 3 U/mg in 50 mM Tris pH 7.6 or water, and 20 molar equivalents of the indicated peptide linker were used and incubated for 24 hours at 37° C. in a rotating thermomixer. Conjugation efficiency was assessed by LC-MS under DTT reduced conditions. Reduction of samples was achieved by incubation of antibody-linker-conjugates (ALCs) for 15 min at 37° C. in 50 mM DTT (final) and 50 mM Tris buffer. Probes were analyzed on a Xevo G2-XS QTOF (Waters) coupled to an Acquity UPLC H-Class System (Waters) and an ACQUITY UPLC BEH C18 Column. Conjugation efficiency (CE) was calculated from deconvoluted spectra and presented in %. Intensities resulting from both glycoforms (G1F and G0F) were taken into account for the calculation, according to the formula: […]
For conjugation of the peptide linkers (see FIG. 2 for structures), 1 mg/mL of native, glycosylated monoclonal antibody in 50 mM Tris pH 7.6, microbial transglutaminase (MTG, Zedira) at a concentration of 6 U/mg in 50 mM Tris pH 7.6 or water, and 80 molar equivalents of the indicated peptide linker were used and incubated for 20 hours at 37° C. in a rotating thermomixer. These are defined as “conditions 2”. Conjugation efficiency was assessed by LC-MS under DTT reduced conditions. Reduction of samples was achieved by incubation of antibody-linker-conjugates (ALCs) for 15 min at 37° C. in 50 mM DTT (final) and 50 mM Tris buffer. Probes were analyzed on a Xevo G2-XS QTOF (Waters) coupled to an Acquity UPLC H-Class System (Waters) and a ACQUITY UPLC BEH C18 Column. Conjugation efficiency (CE) was calculated from deconvoluted spectra and presented in %. Intensities resulting from both glycoforms (G1F and G0F) were taken into account for the calculation, according to the formula: […]
(§3) For conjugation of the peptide linkers (see FIG. 2 for structures), 5 mg/mL of native, glycosylated monoclonal antibody in 50 mM Tris pH 7.6, microbial transglutaminase (MTG, Zedira) at a concentration of 3 U/mg in 50 mM Tris pH 7.6 or water, and 5 molar equivalents of the indicated peptide linker were used and incubated for 24 hours at 37° C. in a rotating thermomixer. These are defined as “conditions 3”. Conjugation efficiency was assessed by LC-MS under DTT reduced conditions. Reduction of samples was achieved by incubation of antibody-linker-conjugates (ALCs) for 15 min at 37° C. in 50 mM DTT (final) and 50 mM Tris buffer. Probes were analyzed on a Xevo G2-XS QTOF (Waters) coupled to an Acquity UPLC H-Class System (Waters) and a ACQUITY UPLC BEH C18 Column. Conjugation efficiency (CE) was calculated from deconvoluted spectra and presented in %. Intensities resulting from both glycoforms (G1F and G0F) were taken into account for the calculation, according to the formula: […]

[2] = system: native, glycosylated antibody daratumumab (anti CD38 IgG); test: MTG-mediated conjugation of peptide linkers to native glycosylated daratumumab, conjugation efficiency by LC-MS under reducing conditions; format: biochemical; conditions: MTG 3 U/mg, 24 hours at 37° C.; for Conjugation efficiency (%) Daratumumab with conditions 3: conditions 3: 5 mg/mL antibody, 5 molar equivalents linker; for Conjugation efficiency (%) to antibody: daratumumab 5 mg/mL, 20 molar equivalents linker, 50 mM Tris pH 7.6
Description: as §1, §2, §3

[3] = target: DNA-dependent RNA polymerase II (Homo sapiens, UniProt P24928); conditions: read-out: KD of the complex between amanitin and RNA-polymerase II; cited from earlier work

Compound	IC50, cytostatic effects on various tumor cell lines (various tumor cell lines)	Conjugation efficiency (%) to antibody [1] [%]	Conjugation efficiency (%) Daratumumab with conditions 3 [2] [%]	Conjugation efficiency (%) to antibody [2] [%]	Conjugation efficiency (%) antibody with conditions 2 [1] [%]	Conjugation efficiency (%) Trastuzumab with conditions 3 [1] [%]	Kd [3] [nM]
CC[C@H](C)[C@H](NC(=O)[C@H]1CCCCN1C)C(=O)N(COC(=O)CC(C)C)[C@H](C[C@@H](OC(C)=O)c1nc(C(=O)N[C@@H](Cc2ccc(O)cc2)C[C@H](C)C(=O)O)cs1)C(C)C [Tubulysin A]	picomolar range	–	–	–	–	–	–
AARK(N3)-NH2 [reference compound]	–	0	–	–	–	–	–
LGRC-NH2 [reference compound]	–	0	–	–	–	–	–
NH2-C1-ARK(N3)-NH2 (GARK; HELM PEPTIDE1{G.A.R.[[N-]=[N+]=NCCCC[C@H](N[*:1])C(=O)[*:2]].[am]}$$$$V2.0; SMILES C[C@H](NC(=O)CN)C(=O)N[C@@H](CCCNC(=N)N)C(=O)N[C@@H](CCCCN=[N+]=[N-])C(N)=O) [NT28]	–	89	–	–	–	–	–
NH2-C1-GRK(N3)-NH2 (GGRK; HELM PEPTIDE1{G.G.R.[[N-]=[N+]=NCCCC[C@H](N[*:1])C(=O)[*:2]].[am]}$$$$V2.0; SMILES [N-]=[N+]=NCCCC[C@H](NC(=O)[C@H](CCCNC(=N)N)NC(=O)CNC(=O)CN)C(N)=O) [NT24]	–	99	89	95	78	97	–
NH2-C2-GRK(N3)-NH2 (H-[βAla]GRK(N3)-NH2) [NT37]	–	70	–	–	38	–	–
NH2-C3-GRK(N3)-NH2 [NT38]	–	53	–	–	36	–	–
NH2-C4-GRK(N3)-NH2 [NT41]	–	99	88	98	70	88	–
NH2-C4-ValArg-NH2 [NT40]	–	96	51	89	83	58	–
NH2-C4-ValCit-NH2 [NT39]	–	67	–	–	63	–	–
NH2-C5-GRK(N3)-NH2 [NT36]	–	84	72	93	56	75	–
NH2-C5-ValArg-NH2 [NT44]	–	100	73	95	88	77	–
NH2-C5-ValCit-NH2 [NT43]	–	83	–	–	79	–	–
NH2-C6-AspArg-NH2 [NT66]	–	64	–	66	–	–	–
NH2-C6-GRK(N3)-NH2 [NT42]	–	67	–	–	38	–	–
NH2-C6-IleArg-NH2 [NT65]	–	96	79	95	–	78	–
NH2-C6-ThrArg-NH2 [NT64]	–	95	92	93	–	92	–
NH2-C6-TrpArg-NH2 [NT67]	–	82	–	83	–	–	–
RGRK(N3)-NH2 [reference compound]	–	0	–	–	–	–	–
SAGRK(N3)-NH2 [reference compound]	–	0	–	–	–	–	–
VGRC-NH2 [reference compound]	–	0	–	–	–	–	–
amanitin	–	–	–	–	–	–	3
